The values below come from patent publication US4801712A, “2-Alkyl(or phenyl)thio-6-n-alkylergolines are dopamine D-1 antagonists without D-2 agonist activity” (Eli Lilly and Company, priority 1987, dated 1989).

Broadly, the inhibition is the drop in the measured response relative to a control, in per cent.

Test [1] addresses T1, dopamine D-1 receptors (Rattus norvegicus, UniProt P18901).
T1 construct: Retinal tissue was removed from the eyeball and homogenized; from tissue; host or cells: rat retina homogenate (adult male Sprague-Dawley)
Description: Retinal Adenylate Cyclase Assay (dopamine D-1 antagonist assay). The conditions noted are these: 10 μM dopamine, rat retina homogenate; for inhibition at 0.1 µM: 0.1 μM drug; for inhibition at 1 µM: 1.0 μM drug; for inhibition at 3 µM: 3.0 μM drug; for inhibition at 10 µM: 10.0 μM drug; for inhibition at 100 µM: 100.0 μM drug. The format is biochemical, rat (adult male, Sprague-Dawley). On the procedure:
The compounds of this invention are dopamine D-1 antagonists without D-2 agonist activity; i.e., they counter the effects of dopamine at D-1 receptors in the brain. The dopamine D-1 antagonist assay was carried out as follows.
Retinal Adenylate Cyclase Assay
Adult male, Sprague-Dawley rats purchased from Charles River Breeding Laboratories (North Wilmington, Mass.) were used in these studies. The rats were decapitated and the eyeballs were removed. The eyeballs were bisected at the juncture of the sclera and iris using capsulotomy scissors. The retina was dissociated from the choroid by irrigation with saline. Retinal tissue was removed from the eyeball and homogenized with Tris-2 mM EGTA (pH 7.4; 1:150 wt.:vol.) using a teflon-glass Dounce homogenizer at a speed of 50 rpm.
The adenylate cyclase assay was performed at an incubation temperature of 30° C. and over a 20-minute reaction period. The reaction mixture contained the following constant ingredients: 2 mM MgSO4, 0.5 mM EGTA, 1 mM IBMX, 0.01 mM GTP, 80 mM Tris-HCl, pH 7.4, 0.5 mM ATP with 3-5×10^6 cpm ^32 P-ATP and 20-25 μg retinal homogenate protein. The reaction mixture also contained various concentrations of the compound tested alone or in the presence of 10 μM dopamine. The reaction was started by the addition of ATP/^32 P-ATP and was stopped by the addition of a solution containing 1% SDS, 20 mM ATP, 0.7 mM cyclic AMP, 80 mM Tris-HCl pH 7.4 and 10^4 cpm ^3 H-cyclic AMP in a total volume of 200 μl. This mixture was heated for 2 minutes at 90° C. to further insure reaction termination. The ^32 P cyclic AMP formed during the reaction was isolated from each sample using the chromatographic method of Solomon (1979). The ^3 H-cyclic AMP was also simultaneously isolated with this procedure. The net ^32 P-cyclic AMP formed was calculated by correcting the final ^32 P cpm for column recovery efficiency delermined by the ^3 H recovery and for background radioactivity determined by the radioactivity in incubates without homogenate. Homogenate protein determinations were made using the BioRad protein assay with bovine serum albumin used at the reference protein. Dopaminergic agonist activity was evaluated based upon percent stimulation over activity without drug. Dopaminergic antagonist activity was estimated based upon the percent inhibition of the response to 10 μM dopamine.
In the Table, column 1 gives the name of the compound, column 2, the concentration of drug in the medium, and column 3, the percent inhibition of 10 μM dopamine.

The subject of test [2] is prolactin secretion (D-2). As to the kind of experiment: Inhibition of prolactin secretion in nonreserpinized rats (test for D-2 dopamine agonist activity). The format is in vivo, rat (adult male, Sprague-Dawley). The conditions noted are these: 1 hour after treatment, rat serum. The method, then: The drugs of this invention, represented by formulas II and III, are shown to lack D-2 dopamine agonist activity at D-1 antagonist dose levels in a test to determine their ability (or inability) to inhibit the secretion of prolactin in nonrespernized rats. This test was carried out as follows.
Adult male rats of the Sprague-Dawley strain weighing about 200 g. were housed in an air-conditioned room with controlled lighting (14 hours light-10 hours dark) and fed lab chow and water ad libitum. The compound was dissolved in 10 percent ethanol, and injected intraperitoneally at a dose of 1 or 2 mg/kg. The compound was administered to a group of 10 rats, and a control group of 10 intact males received an equivalent amount of 10 percent ethanol. One hour after treatment, all rats were killed by decapitation, and 150 μl aliquots of serum were assayed for prolactin.
The difference between the mean prolactin level of the treated rats and mean prolactin level of the control rats, divided by the mean prolactin level of the control rats, gives the percent change in prolactin secretion attributable to the given dose.

In test [3] the test system is prolactin. Conditions: found by Clemens, Semonsky, Meites and co-workers; cited from earlier work.

Where a name gives a salt, the structure may show the parent alone.

T1 sequence (P18901 whole entry): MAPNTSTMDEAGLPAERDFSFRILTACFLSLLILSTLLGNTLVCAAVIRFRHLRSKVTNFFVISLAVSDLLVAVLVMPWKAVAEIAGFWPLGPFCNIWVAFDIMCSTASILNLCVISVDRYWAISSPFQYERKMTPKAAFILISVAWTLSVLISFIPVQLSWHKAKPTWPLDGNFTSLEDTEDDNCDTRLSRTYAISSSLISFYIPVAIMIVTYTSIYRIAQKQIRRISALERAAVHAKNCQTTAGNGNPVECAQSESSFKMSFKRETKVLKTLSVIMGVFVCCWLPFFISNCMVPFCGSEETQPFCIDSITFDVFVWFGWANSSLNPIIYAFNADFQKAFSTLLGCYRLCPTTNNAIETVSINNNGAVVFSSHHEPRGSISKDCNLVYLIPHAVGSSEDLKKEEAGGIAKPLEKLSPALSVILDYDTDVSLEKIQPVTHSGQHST

On to `CSc1[nH]c2cccc3c2c1CC(N(C)C)C3` (racemic) [(±)-2-methylthio-4-dimethyamino-1,3,4,5-tetrahydrobenz[c,d]indole maleate], for which, in test [1], the inhibition at 0.1 µM was -5.3%, the inhibition at 1 µM stood at 0.9 ± 1.5%, the inhibition at 3 µM was determined as 19.1 ± 6.4% and the inhibition at 10 µM stood at 34.7 ± 13%. The inhibition at 100 µM in test [1] worked out at 84 ± 3.3%. For the same molecule, in test [1] (0.3 μM drug), the inhibition at 0.3 µM is -2.2 ± 3.8%. Moreover, the inhibition at 1 mg/kg in test [2] (ip, 1 mg/kg i.p., not marked as statistically significant, read-out: Percent changes in prolactin (inhibition)) was determined as 9%.
Consider `CC(C)C[C@H]1C(=O)N2CCC[C@H]2[C@]2(O)O[C@](NC(=O)[C@@H]3C=C4c5cccc6[nH]c(Br)c(c56)C[C@H]4N(C)C3)(C(C)C)C(=O)N12` [2-bromo α-ergokryptine], for which the “activity as prolactin inhibitors” value in test [3] is listed as “activity as prolactin inhibitors”.
For the molecule `CSc1[nH]c2cccc3c2c1C[C@@H]1[C@@H]3CC(CC#N)CN1C` (stereo partly drawn) [D-2-methylthio-6-methyl-8-cyanomethylergoline], the inhibition at 2 mg/kg in test [2] (ip, 2 mg/kg i.p., * statistically significant at p < 0.05, read-out: Percent changes in prolactin (inhibition)) worked out at 68%.
On to `CSC[C@@H]1C[C@@H]2c3cccc4[nH]c(SC)c(c34)C[C@H]2N(C)C1` [D-2-methylthio-6-methyl-8β-methylthiomethylergoline], for which, in test [1], the inhibition at 0.1 µM was -5%, the inhibition at 1 µM was 26.4 ± 6%, the inhibition at 3 µM was determined as 49 ± 0.8% and the inhibition at 10 µM stood at 72.5 ± 4.8%. Also, the inhibition at 100 µM in test [1] was determined as 76.6 ± 7.7%. Also, in test [1] (30.0 μM drug), the inhibition at 30 µM turned out to be 73.8 ± 4.2%. In addition, in test [2] (2 mg/kg i.p., * statistically significant at p < 0.05), the “Percent changes in prolactin (stimulation)” value came to 54%.
Regarding `CN1CC(CC#N)C[C@@H]2c3cccc4[nH]cc(c34)C[C@H]21` (stereo partly drawn) [D-6-methyl-8-cyanomethylergoline], in test [3], the “activity as prolactin inhibitors” value is “activity as prolactin inhibitors”.
For `CC(C)[C@H]1C(=O)N2CCC[C@H]2[C@]2(O)O[C@](NC(=O)[C@@H]3C=C4c5cccc6[nH]cc(c56)C[C@H]4N(C)C3)(C(C)C)C(=O)N12` [Ergocornine], the “activity as prolactin inhibitors” value in test [3] is “activity as prolactin inhibitors”.
As to `CC(C)[C@H]1C(=O)N2CCC[C@H]2[C@]2(O)O[C@](NC(=O)[C@@H]3C[C@@H]4c5cccc6[nH]cc(c56)C[C@H]4N(C)C3)(C(C)C)C(=O)N12` [dihydroergocornine], in test [3], the “activity as prolactin inhibitors” value was “activity as prolactin inhibitors”.
